Assay results from patent US11091463B2, “Amide-substituted pyridinyltriazole derivatives and uses thereof” (BAYER PHARMA AKTIENGESELLSCHAFT, priority 2016, dated 2021).

What follows are compounds tested against T1, human V1a receptor (Homo sapiens, UniProt P37288) (assay: Cellular in vitro assay for vasopressin receptor activity, V1a receptor cell line (photoprotein luminescence)). Conditions: Table 1A; compounds of the invention; selectivity ratio.
T1 construct: expressed in transfected cells; host or cells: CHO K1 (ATCC), also stably transfected with a modified aequorin
T1 sequence (P37288 whole entry): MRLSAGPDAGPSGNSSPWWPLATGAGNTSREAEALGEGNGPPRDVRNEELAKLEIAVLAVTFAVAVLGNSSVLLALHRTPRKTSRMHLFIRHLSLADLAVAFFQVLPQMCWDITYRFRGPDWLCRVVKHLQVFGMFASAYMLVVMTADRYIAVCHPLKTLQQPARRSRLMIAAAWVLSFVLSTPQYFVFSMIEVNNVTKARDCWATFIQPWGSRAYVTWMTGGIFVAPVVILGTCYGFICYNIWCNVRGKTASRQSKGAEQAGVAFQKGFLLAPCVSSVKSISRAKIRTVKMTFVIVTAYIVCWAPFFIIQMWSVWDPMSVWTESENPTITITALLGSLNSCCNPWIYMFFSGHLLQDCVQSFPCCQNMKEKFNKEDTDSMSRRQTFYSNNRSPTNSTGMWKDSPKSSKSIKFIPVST
Format: cell-based
Method: B-1. Cellular In Vitro Assay for Determining Vasopressin Receptor Activity
The identification of agonists and antagonists of the V1a and V2 vasopressin receptors from humans, rats and dogs as well as the quantification of the activity of the compounds of the invention is carried out using recombinant cell lines. These cell lines originally derive from a hamster's ovary epithelial cell (Chinese Hamster Ovary, CHO K1, ATCC: American Type Culture Collection, Manassas, Va. 20108, USA). The test cell lines constitutively express the human, rat or dog V1a or V2 receptors. In case of the Gαq-coupled V1a receptors, cells are also stably transfected with a modified form of the calcium-sensitive photoproteins aequorin (human and rat V1a) or obelin (dog V1a), which, after reconstitution with the cofactor coelenterazine, emit light when there are increases in free calcium concentrations [Rizzuto R, Simpson A W, Brini M, Pozzan T, Nature, 358, 325-327 (1992); Illarionov B A, Bondar V S, Illarionova V A, Vysotski E S, Gene, 153 (2), 273-274 (1995)]. The resulting vasopressin receptor cells react to stimulation of the recombinantly expressed V1a receptors by intracellular release of calcium ions, which can be quantified by the resulting photoprotein luminescence. The Gs-coupled V2 receptors are stably transfected into cell lines expressing the gene for firefly luciferase under control of a CRE-responsible promoter. Activation of V2 receptors induces the activation of the CRE-responsive promoter via cAMP increase, thereby inducing the expression of firefly luciferase. The light emitted by photoproteins of V1a cell lines as well as the light emitted by firefly luciferase of V2 cell lines corresponds to the activation or inhibition of the respective vasopressin receptor. The bioluminescence of the cell lines is detected using a suitable luminometer [Milligan G, Marshall F, Rees S, Trends in Pharmacological Sciences, 17, 235-237 (1996)].
Vasopressin V1a Receptor Cell Lines:
On the day before the assay, the cells are plated out in culture medium (DMEM/F12, 2% FCS, 2 mM glutamine, 10 mM HEPES, 5 μg/ml coelenterazine) in 384-well microtiter plates and kept in a cell incubator (96% humidity, 5% v/v CO2, 37° C.). On the day of the assay, test compounds in various concentrations are placed for 10 minutes in the wells of the microtiter plate before the agonist [Arg^8]-vasopressin at EC50 concentration is added. The resulting light signal is measured immediately in a luminometer.
Table 1A below lists individual IC50 values for the compounds of the invention (including racemic mixtures as well as separated enantiomers) that were obtained from cell lines transfected with the human V1a or V2 receptor: […]
With NC(=O)c1nc(Cn2nc(-c3ccc(Cl)cc3)n(C[C@H](O)C(F)(F)F)c2=O)nn1-c1ncccc1Cl [Example 1, 3-({3-(4-Chlorophenyl)-5-oxo-4-[(2S)-3,3,3-trifluoro-2-hydroxypropyl]-4,5-dihydro-1H-1,2,4-triazol-1-yl}methyl)-1-(3-chloropyridin-2-yl)-1H-1,2,4-triazole-5-carboxamide] the “ratio IC50 hV2/hV1a” value was 38.2. For NC(=O)c1nc(Cn2nc(-c3ccc(Cl)cc3)n(C[C@H](O)C(F)(F)F)c2=O)nn1-c1ncccc1C(F)(F)F [Example 2, 3-({3-(4-Chlorophenyl)-5-oxo-4-[(2S)-3,3,3-trifluoro-2-hydroxypropyl]-4,5-dihydro-1H-1,2,4-triazol-1-yl}methyl)-1-[3-(trifluoromethyl)pyridin-2-yl]-1H-1,2,4-triazole-5-carboxamide], the “ratio IC50 hV2/hV1a” value was 141.0. NC(=O)c1nc(Cn2nc(-c3ccc(Cl)cc3)n(C[C@H](O)C(F)(F)F)c2=O)nn1-c1ncccc1OC(F)(F)F [Example 3, 3-({3-(4-Chlorophenyl)-5-oxo-4-[(2S)-3,3,3-trifluoro-2-hydroxypropyl]-4,5-dihydro-1H-1,2,4-triazol-1-yl}methyl)-1-[3-(trifluoromethoxy)pyridin-2-yl]-1H-1,2,4-triazole-5-carboxamide] was tested, and the “ratio IC50 hV2/hV1a” value was 54.7. In the case of NC(=O)c1nc(Cn2nc(-c3ccc(Cl)cc3)n(C[C@H](O)C(F)(F)F)c2=O)nn1-c1ncccc1Br [Example 4, 1-(3-Bromopyridin-2-yl)-3-({3-(4-chlorophenyl)-5-oxo-4-[(2S)-3,3,3-trifluoro-2-hydroxypropyl]-4,5-dihydro-1H-1,2,4-triazol-1-yl}methyl)-1H-1,2,4-triazole-5-carboxamide], the “ratio IC50 hV2/hV1a” value is reported as 72.6. In the case of CCOC(=O)c1cccnc1-n1nc(Cn2nc(-c3ccc(Cl)cc3)n(C[C@H](O)C(F)(F)F)c2=O)nc1C(N)=O [Example 5, Ethyl 2-[5-carbamoyl-3-({3-(4-chlorophenyl)-5-oxo-4-[(2S)-3,3,3-trifluoro-2-hydroxypropyl]-4,5-dihydro-1H-1,2,4-triazol-1-yl}methyl)-1H-1,2,4-triazol-1-yl]nicotinate], the “ratio IC50 hV2/hV1a” value is reported as 85.9. With NC(=O)c1nc(Cn2nc(-c3ccc(Cl)cc3)n(C[C@H](O)C(F)(F)F)c2=O)nn1-c1cnccc1Cl [Example 6, 3-({3-(4-Chlorophenyl)-5-oxo-4-[(2S)-3,3,3-trifluoro-2-hydroxypropyl]-4,5-dihydro-1H-1,2,4-triazol-1-yl}methyl)-1-(4-chloropyridin-3-yl)-1H-1,2,4-triazole-5-carboxamide] the “ratio IC50 hV2/hV1a” value was 43.9. For NC(=O)c1nc(Cn2nc(-c3ccc(Cl)cc3)n(C[C@H](O)C(F)(F)F)c2=O)nn1-c1cnccc1C(F)(F)F [Example 7, 3-({3-(4-Chlorophenyl)-5-oxo-4-[(2S)-3,3,3-trifluoro-2-hydroxypropyl]-4,5-dihydro-1H-1,2,4-triazol-1-yl}methyl)-1-[4-(trifluoromethyl)pyridin-3-yl]-1H-1,2,4-triazole-5-carboxamide], the “ratio IC50 hV2/hV1a” value was 117.3. CCOC(=O)c1ccncc1-n1nc(Cn2nc(-c3ccc(Cl)cc3)n(C[C@H](O)C(F)(F)F)c2=O)nc1C(N)=O [Example 8, Ethyl 3-[5-carbamoyl-3-({3-(4-chlorophenyl)-5-oxo-4-[(2S)-3,3,3-trifluoro-2-hydroxypropyl]-4,5-dihydro-1H-1,2,4-triazol-1-yl}methyl)-1H-1,2,4-triazol-1-yl]isonicotinate] was tested, and the “ratio IC50 hV2/hV1a” value was 35.0. NC(=O)c1cccnc1-n1nc(Cn2nc(-c3ccc(Cl)cc3)n(C[C@H](O)C(F)(F)F)c2=O)nc1C(N)=O [Example 9, 2-[5-carbamoyl-3-({3-(4-chlorophenyl)-5-oxo-4-[(2S)-3,3,3-trifluoro-2-hydroxypropyl]-4,5-dihydro-1H-1,2,4-triazol-1-yl}methyl)-1H-1,2,4-triazol-1-yl]nicotinamide] was tested, and the “ratio IC50 hV2/hV1a” value was 30.0. NC(=O)c1nc(Cn2nc(-c3ccc(Cl)cc3)n(C[C@@H](O)C(F)(F)F)c2=O)nn1-c1ncccc1Cl [Example 10, 3-({3-(4-Chlorophenyl)-5-oxo-4-[(2R)-3,3,3-trifluoro-2-hydroxypropyl]-4,5-dihydro-1H-1,2,4-triazol-1-yl}methyl)-1-(3-chloropyridin-2-yl)-1H-1,2,4-triazole-5-carboxamide] was tested, and the “ratio IC50 hV2/hV1a” value was 116.2. For NC(=O)c1nc(Cn2nc(-c3ccc(Cl)cc3)n(C[C@@H](O)C(F)(F)F)c2=O)nn1-c1ncccc1C(F)(F)F [Example 11, 3-({3-(4-Chlorophenyl)-5-oxo-4-[(2R)-3,3,3-trifluoro-2-hydroxypropyl]-4,5-dihydro-1H-1,2,4-triazol-1-yl}methyl)-1-[3-(trifluoromethyl)pyridin-2-yl]-1H-1,2,4-triazole-5-carboxamide], the “ratio IC50 hV2/hV1a” value was 196.8. For NC(=O)c1nc(Cn2nc(-c3ccc(Cl)cc3)n(C[C@@H](O)C(F)(F)F)c2=O)nn1-c1cnccc1Cl [Example 12, 3-({3-(4-Chlorophenyl)-5-oxo-4-[(2R)-3,3,3-trifluoro-2-hydroxypropyl]-4,5-dihydro-1H-1,2,4-triazol-1-yl}methyl)-1-(4-chloropyridin-3-yl)-1H-1,2,4-triazole-5-carboxamide], the “ratio IC50 hV2/hV1a” value was 249.3. With NC(=O)c1nc(Cn2nc(-c3ccc(Cl)cc3)n(C[C@@H](O)C(F)(F)F)c2=O)nn1-c1cnccc1C(F)(F)F [Example 13, 3-({3-(4-Chlorophenyl)-5-oxo-4-[(2R)-3,3,3-trifluoro-2-hydroxypropyl]-4,5-dihydro-1H-1,2,4-triazol-1-yl}methyl)-1-[4-(trifluoromethyl)pyridin-3-yl]-1H-1,2,4-triazole-5-carboxamide] the “ratio IC50 hV2/hV1a” value was 431.3. For NC(=O)c1nc(Cn2nc(-c3ccc(Cl)cc3)n(CC(=O)C(F)(F)F)c2=O)nn1-c1ncccc1Cl [Example 14, 3-{[3-(4-Chlorophenyl)-5-oxo-4-(3,3,3-trifluoro-2-oxopropyl)-4,5-dihydro-1H-1,2,4-triazol-1-yl]methyl}-1-(3-chloropyridin-2-yl)-1H-1,2,4-triazole-5-carboxamide (ketone form) or 3-{[3-(4-chlorophenyl)-5-oxo-4-(3,3,3-trifluoro-2,2-dihydroxypropyl)-4,5-dihydro-1H-1,2,4-triazol-1-yl]methyl}-1-[2-(trifluoromethyl)phenyl]-1H-1,2,4-triazole-5-carboxamide (hydrate form)], the “ratio IC50 hV2/hV1a” value was 20.0. With NC(=O)c1nc(Cn2nc(-c3ccc(Cl)cc3)n(CC(=O)C(F)(F)F)c2=O)nn1-c1ncccc1Br [Example 15, 1-(3-Bromopyridin-2-yl)-3-{[3-(4-chlorophenyl)-5-oxo-4-(3,3,3-trifluoro-2-oxopropyl)-4,5-dihydro-1H-1,2,4-triazol-1-yl]methyl}-1H-1,2,4-triazole-5-carboxamide (ketone form) or 1-(3-Bromopyridin-2-yl)-3-{[3-(4-chlorophenyl)-5-oxo-4-(3,3,3-trifluoro-2,2-dihydroxypropyl)-4,5-dihydro-1H-1,2,4-triazol-1-yl]methyl}-1H-1,2,4-triazole-5-carboxamide (hydrate form)] the “ratio IC50 hV2/hV1a” value was 47.2.
